According to US20170267727A1, “Conjugates of pH Low Insertion Peptide and Monomethyl Auristatins in the Treatment of Solid Tumors” (Lehigh University, priority 2016, published 2017):
Read-outs that look alike come from different tables or passages of the source. Positions of bridges follow the written chain, without caps; N, C: chain ends. Non-standard residues stand in square brackets, D forms with d. Chains are numbered I, II in the order given. *: point of attachment. Dolaproine = CO[C@@H]([C@@H]1CCCN1)[C@@H](C)C(=O)O; Dil = CC[C@H](C)[C@H](NC)[C@@H](CC(=O)O)OC; X1 = C[C@@H](N*)[C@@H](O)c1ccccc1; NMeV = CN[C@H](C(=O)O)C(C)C; Mpa = O=C(O)CCS

What was measured:
[1] = for Trp fluorescence emission maxima: POPC liposomes; for insertion in lipid bilayers: acidic conditions
Description: State I corresponds to the peptides in an aqueous environment is shown in black, state II: peptides in the presence of lipid membranes at pH 7.4, shown in blue and state III: peptides in the presence of lipids at pH 5.0 is shown in red. [peptide]=7 μM and peptide-lipid ratio=1:300 with POPC liposomes.
Preparation of POPC Liposomes. Ten milligrams of POPC in chloroform were dried and then held under vacuum overnight. The dried lipid film was rehydrated with 1 ml of 5 mM sodium phosphate, pH 8.0, and mixed by vigorous vortex. The resulting multilamellar vesicle solution was freeze-thawed in liquid nitrogen for seven cycles and were extruded through a polycarbonate membrane with […] diameter pores using a mini extruder (Avanti Polar Lipids) to produce large unilamellar vesicles. Liposomes were used immediately following their preparation. Lipid concentration was checked using the Marshall's assay and the size distribution was verified by dynamic light scattering analysis performed at a scattering angle of 90° using an ALV/GSC-3 goniometer system equipped with ALV/ALV-7004 correlator (ALV-GmbH, Langen, Germany).
Sample preparation for Circular Dichroism and Tryptophan Fluorescence Measurements. Prior to CD or fluorescence measurements, lyophilized aliquots of pHLIP constructs were resuspended to 20 μM with 5 mM sodium phosphate, pH 8.0, and incubated for 1 hour at room temperature. This stock solution was diluted to a final concentration of 7 μM and, when appropriate, incubated with POPC liposomes at a 1:300 peptide-to-lipid molar ratio for 30 minutes at room temperature. Subsequently, samples were adjusted to the desired experimental pH values with the addition of aliquots of an HCl solution to elicit pH-dependent insertion. Samples were allowed to equilibrate at the desired pH for 30 minutes at room temperature before spectroscopic measurements.
Tryptophan Fluorescence Spectroscopy. All measurements were carried out using a Cary Eclipse Fluorescence Spectrophotometer (Varian), and performed at 25° C. with pHLIP construct concentrations equal to 7 μM. Samples were excited at 295 nm and the emission spectra were taken from 300 to 500 nm, with the slit widths for emission and excitation both set 5 nm.
Circular Dichroism Spectroscopy. Far-UV CD spectra of pHLIP constructs were recorded on Jasco J-815 CD spectrometer equipped with a Peltier thermal-controlled cuvette holder (Jasco, Inc.). All measurements were performed in 0.1 mm quartz cuvette at 25° C. with pHLIP constructs concentrations equal to 7 μM. CD intensities are expressed in mean residue molar ellipticity [θ] calculated from the following equation: […]

MDA-MB-231 cells [2] = test: Anti-proliferation Assay (2 hours treatment at pH 7.4 or 5.0, 72 hours growth, MTT); details: for cell killing (printed 49% versus 100%): 1.25 μM treatment
Description: FIG. 3A, FIG. 3C and FIG. 3E show HeLa cells treated with pHLIP(WT)-MMAE, pHLIP(D25E)-MMAE, and MMAE(linker), respectively. FIG. 3B, FIG. 3D and FIG. 3F show MDA-MB-231 cells treated with pHLIP(WT)-MMAE, pHLIP(D25E)-MMAE, and MMAE(linker), respectively. Black columns represent cells treated at pH 7.4 and cells treated at low pH are shown in grey. For each condition, 3,000 cells/well (96-well plate) were seeded, allowed to adhere overnight, treated for 2 hours, washed once with media and grown for 72 hour in complete medium at physiologic pH. Cell viability was assessed with the MTT assay. All measurements were normalized to the media control (0 μM, pH 7.4), as 100% cell viability. Results are shown as mean±SD (n=6-9).
Anti-proliferation Assay. HeLa and MDA-MB-231 cells were seeded in 96-well plates at a density of 3,000 cells/well and incubated overnight. Before treatment, construct aliquots were solubilized in an appropriate volume of DMEM without FBS (pH 7.4)—so that upon pH adjustment the desired treatment concentration is obtained—and gently sonicated for 30-60 seconds using a bath sonicator (Branson Ultrasonics). After removal of cell media, this treatment solution was added to each well and incubated at 37° C. for 5-10 minutes. The pH was then adjusted to the desired value using a pre-established volume of DMEM, pH 2.0 buffered with citric acid (final volume=50 μL) and the plate was incubated at 37° C. for 2 hours. After treatment, the media was removed, cells were washed once with 100 μL of complete DMEM, and 100 μL of complete medium was added to each well before returning the plate to the incubator. Treatment solutions were collected and their pH values measured using a micro-combination pH probe (Microelectrodes, Inc.). […] Cell viability was determined after 72 hours using the colorimetric MTT assay. Briefly, 10 μL of a 5 mg/mL MTT stock solution was added to the treated cells and incubated for 2 hours at 37° C. The resulting formazan crystals were solubilized in 200 μL DMSO and the absorbance measured at 580 nm using an Infinite 200 PRO microplate reader (Tecan). Cell viability was calculated against control cells treated with media at physiologic pH.
Inhibition of Cell Proliferation. The ability of pHLIP to move MMAE across the cell membrane and to inhibit cancer cell proliferation in concentration and pH-dependent manners was evaluated. Cell treatments for both pHLIP(WT)-MMAE and pHLIP(D25E)-MMAE constructs were carried out with conjugate concentrations ranging from 1.25 to 10 μM at either pH 7.4 or 5.0. After a 2-hour incubation at 37° C., the treatment media was replaced by fresh media, and cells were grown for an additional 72 hours at normal pH before assessing cell viability using the MTT assay. […] This treatment protocol is quite stringent when compared to the typical multi-days exposure treatments used with free drugs (FIG. 6A and FIG. 6B).

MDA-MB-231 cells [3] = details: 10 μM, 2 hours, pH 7.4 or pH 5.0
Description: (§1) The integrity of the plasma membrane is assessed by the uptake of trypan blue dye. 3,000 cells/well of HeLa (FIG. 4A) and MDA-MB-231 (FIG. 4B) cells were seeded, allowed to adhere overnight and treated with 10 μM conjugates or media alone (no peptide) for 2 hours at pH 7.4 (black bars) or pH 5.0 (grey bars). Cells were detached and counted based on trypan blue uptake with a hemacytometer: % of intact cells corresponds to the number of cells not showing any dye uptake over the total number of cells. Results are shown as mean±SD (n=4).
(§2) Cell Membrane Integrity Assay. HeLa and MDA-MB-231 cells were seeded in 96-well plates at a density of 3,000 cells/well and incubated until confluent (˜72 hours). Before treatment, construct aliquots were solubilized in an appropriate volume of DMEM without FBS (pH 7.4) so that upon pH adjustment 10 μM is obtained. Cell media was removed, the treatment solution was added to each well and cell were incubated at 37° C. for 5-10 minutes. The pH was then adjusted to the desired value using a pre-established volume of DMEM, pH 2.0 buffered with citric acid (final volume=50 μL). The plate was incubated at 37° C. for 2 hours. After treatment, the media was removed, cells were detached using trypsin and counted based on trypan blue uptake using a hemacytometer.

HeLa cells = details: 10 μM, 2 hours, pH 7.4 or pH 5.0
Description: as §1, §2

Row | Substance | Trp fluorescence emission maxima ([1]; pH 5.0) | Trp fluorescence emission maxima ([1]; pH 7.4) | insertion in lipid bilayers [1] | cell killing (printed 49% versus 100%) (MDA-MB-231 cells [2]) | inhibition of proliferation (MDA-MB-231 cells [2]; normal pH) | disruption of the plasma membrane (MDA-MB-231 cells [3]) | disruption of the plasma membrane (HeLa cells)
1 | I: H-AAEQNPIYWARYADWLFTTPLLLLDLALLVDADEGTCG-OH / II: [Mpa][NMeV]V[Dil][Dolaproine]-X1 (disulfide I:37-II:1) [pHLIP(WT)-MMAE] | 334 nm | 348 nm | can insert in lipid bilayers under acidic conditions to form stable transmembrane α-helices | 100% | no significant inhibition of proliferation | neither conjugates, nor low pH treatment, caused disruption of the membranes | neither conjugates, nor low pH treatment, caused disruption of the membranes
2 | I: H-AAEQNPIYWARYADWLFTTPLLLLELALLVDADEGTCG-NH2 / II: [Mpa][NMeV]V[Dil][Dolaproine]-X1 (disulfide I:37-II:1) [pHLIP(D25E)-MMAE] | 329 nm | 347 nm | can insert in lipid bilayers under acidic conditions to form stable transmembrane α-helices | 49% |  | neither conjugates, nor low pH treatment, caused disruption of the membranes | neither conjugates, nor low pH treatment, caused disruption of the membranes
